Measured values taken from paper PMC11133429, “Regiodivergent biosynthesis of bridged bicyclononanes” (Nature Communications, 2024).

Assays:
[1] = system: T1, HsCPTb; test: HPLC prenyltransferase assay, yeast microsomes; format: biochemical, Hypericum sampsonii; conditions: optimum conditions, Mg2+, pH optimum 10
T1 construct: cDNA in pESC-URA (GAL1), S. cerevisiae INVSc1 microsomal fraction; no tag mentioned

[2] = system: T2, HsCPTa; test: HPLC prenyltransferase assay, yeast microsomes; format: biochemical, Hypericum sampsonii; conditions: optimum conditions, Mg2+, pH optimum 7
T2 construct: cDNA in pESC-URA (GAL1), S. cerevisiae INVSc1 microsomal fraction; no tag mentioned

| SMILES | Km ([1]; prenyl donor, acceptor grandone (only one accepted)) [µM] | Km ([2]; prenyl donor, acceptor not given) [µM] | Km ([2]; DMAPP saturation) [µM] | Km ([1]; DMAPP saturation) [µM] |
| --- | --- | --- | --- | --- |
| CC(C)=CCOP(=O)(O)OP(=O)(O)O [DMAPP] | 298 ± 29.5 | 65.4 ± 6.63 |  |  |
| CC(C)=CCC1=C(O)C(CC=C(C)C)(CC=C(C)C)C(=O)C(C(=O)C(C)C)=C1O [colupulone] |  |  | 106 ± 9.86 |  |
| CC(C)=CCC1=C(O)C(CC=C(C)C)(CC=C(C)C)C(=O)C(C(=O)c2ccccc2)=C1O [compound 1, grandone] |  |  | 62 ± 10.1 | 40.4 ± 5.06 |
| CC(C)=CCC/C(C)=C/C[C@]1(CC=C(C)C)C(=O)C(CC=C(C)C)=C(O)/C(=C(\O)c2ccccc2)C1=O [compound 2, kolanone] |  |  | 114 ± 20 |  |
